Consider five compounds from US20240197596A1, “COMPOUNDS USEFUL AS HAIR DYES” (National University of Singapore, priority 2021, published 2024).

The structures appear in SMILES notation.

One data set deals with HaCaT cells. Description: MTT assay on HaCaT cells. It counts as cell-based. The conditions noted are these: Homo sapiens; HaCaT cells, 72 h, MTT; read-out: IC50. The method, then: HaCaT (human, adult, low calcium, high temperature, skin keratinocyte) cell suspension was adjusted to 5×10^3 cells per well and seeded in 96-well plates, then incubated at 37° C. with 5% CO2. After 24 h, 10 mM stock solutions of N1-N13 in autoclaved milli-Q water were prepared and serially diluted concentrations were added to the wells. Each concentration was performed in 6-replicates, and seeded wells with only media and no compound were used as controls while wells with only media were used as blanks. The plate was incubated for 72 h, after which 100 μL of MTT reagent was added and the plate was further incubated for 3 h before adding 100 μL of DMSO. Subsequently, the plate was shaken for 20 min, and then absorbance at 570 nm was determined using a Bio-Tek plate reader.
A general note: Formazan colour is commonly taken as a measure of viable cells.

For data set [1], the system named is THP-1 cells. Kind of data set: MTT assay on THP-1 cells (CV75). The class given is cell-based, human. Conditions: THP-1 cells, 24 h. As for the experimental part:
THP-1 (human acute monocytic leukaemia cell line) cell suspension was adjusted to 1×10^5 cells per well and seeded in 96-well plates. The plate was incubated at 37° C. with 5% CO2. After 24 h, 10 mM stock solutions of N1-N13 were prepared in autoclaved milli-Q water. A series of concentrations diluted in media was prepared and added to the wells. Each concentration was performed in 6-replicates, and seeded wells with only media and no compound were used as controls while wells with only media were used as blanks. The plate was incubated for 24 h, after which 100 μL of MTT reagent was added and the plate was further incubated for 3 h before adding 100 μL of DMSO. Subsequently, the plate was shaken for 20 min, and then absorbance at 570 nm was determined using a Bio-Tek plate reader. Percentage cell viability was calculated and CV75 values were determined.

In data set [2] the test system is THP-1 cells. Description: h-CLAT assay on THP-1 cells: markers against OECD cut-off, prediction, cell viability. It counts as cell-based, human. Conditions: 8 doses based on CV75, 24 h. As for the experimental part: The assay was conducted as per the literature (Toxicol In Vitro, 2006, 20, 767-73). THP-1 cells were cultured in 24-well plates (1×10^6 cells/1 mL/well) with various concentrations of each chemical (N1-N13), +ve control (DNCB), −ve control for 24 h.
THP-1 cells were cultured in 24-well plates (1×10^6 cells/mL/well) and treated with recommended concentrations of each chemical (N1-N13), positive control (DNCB) or negative control (SLS) for 24 h. THP-1 cells were cultured and treated with 8 doses of N1-N13 based on the CV75 namely, 1.2×CV75, 1×CV75, 1/1.2×CV75, 1/1.2^2×CV75, 1/1.23×CV75, 1/1.24×CV75, 1/1.2^5×CV75 and 1/1.2^6×CV75. After 24 h, cells were transferred to 1.5 mL of microtubes and centrifuged at 450 g, 5 min, 4° C. Supernatant was discarded and cells were washed with 1 mL of FACS buffer (PBS+FBS+HEPES). The cells were centrifuged at 450 g, 5 min, 4° C. 50 μL of Fc block (0.01% of Globlins Cohn fraction II, III) was added and incubated for 10 min at 4° C. The cells were stained with 20 μL APC CD54 (Mouse IgG1, K, BD Biosciences, San Diego, CA, USA), 20 μL FITC CD86 (Mouse IgG1, K, BD Biosciences, San Diego, CA, USA) or their respective isotype controls and incubated for 15 min at room temperature in dark. After incubation, the antibodies were diluted with 200 μl FACS buffer. The cells were washed with 1 mL FACS buffer twice. Further, 200 μL Propidium iodide (PI, 0.625 μg/mL) prepared in FACS buffer was added before the flow cytometry analysis. Flow cytometric analysis was performed with BD LSR Fortessa™ (Becton Dickinson, San Jose, CA, USA) In total, 10,000 living cells were analysed, and data were processed using Flowjo software (v10.6, Ashland, OR, USA). The test concentration providing a cell viability of 75% (CV75) was derived from the dose response curve and was calculated by log-linear interpolation.
Geometric mean fluorescence intensity (MFI) was measured for CD54^+ and CD86^+ cells separately and percentage relative fluorescence intensity (% RFI), reflective of CD86 and CD54 relative expression was calculated as described below. RFI was not calculated if cell viability fell below 50%.
All chemicals were tested in three independent experiments. If in two of three independent experiments at any dose exceeded 150% RFI for CD86, or 200% RFI for CD54, the chemicals could be identified as a sensitizer. Otherwise it is identified as a non-sensitizer.

The nature of a further data set: Hair nuance test. Further details: key to L* / a* / b*: CIELAB L*, a*, b* coordinates; key to ΔE (total colour difference to natural hair): ΔE = √((L*−L0)²+(a*−a0)²+(b*−b0)²) vs untreated hair. The conditions noted are these: for eventual colour of bleached hair, Type B: Type B (Oxidative, H2O2) formulation; for eventual colour of bleached hair, Type C: Type C (Oxidative with coupler resorcinol) formulation; for eventual colour of bleached hair, Type A: Type A (Non-oxidative) formulation. As for the experimental part:
35 g of bleaching powder was mixed with 50 mL of developer then applied onto undyed black hair (wrapped in aluminium foil to enhance the bleaching process) and left on for 45 min. The hair was then rinsed with deionized water and shampoo and left to dry. This process was repeated twice.
Hair dye formulations were prepared from N1-N13 according to methods reported (New Journal of Chemistry. 2019; 43(41):16188-99), and with the compositions stated in Table 11 Bleached hair samples were immersed into the respective formulations for 20 min, then air dried for 20 min. Then they were shampooed twice and treated with conditioner for 5 min.
SkinColorCatch (Delfin Technologies Ltd, Kuopio, Finland) was used to measure CIELAB tristimulus L*, a* and b* values of the dyed hair samples and baseline L0, a0, b0 values from untreated hair. The difference in colour tone (ΔH) and the total colour difference (ΔE) were then derived from the values obtained with the equations below:
ΔH=√{square root over ((a*−a0)^2+(b*−b0)^2)}
ΔE=√{square root over ((L*−L0)^2+(a*−a0)^2+(b*−b0)^2)}

The mark [3] stands for this setting: Type C (Oxidative with coupler resorcinol).

A word on the IC50: it is the midpoint of a concentration-inhibition curve. For the compound `COC(COc1cc(N)ccc1N)OC` [Compound N1, 2-(2,2-dimethoxyethoxy)benzene-1,4-diamine], the IC50 with HaCaT cells was determined as 508 µM. In addition, the “CV75 (concentration affording 75% cell viability), 1 × CV75” value in the data set on THP-1 cells [1] amounted to 143.4 µg/mL. In addition, the “CD54 and CD86 marker expression against OECD cut-off” value (shortened to “CD54 and CD86 marker expression”) in the data set on THP-1 cells [2] is reported as “did not express the markers at any tested dose level”. Also, in the data set “Hair nuance test” (Type A (Non-oxidative)), the “L*” value was found to be 23, the “a*” value worked out at 12, the “b*” value came to 8 and the “ΔE (total colour difference to natural hair)” value turned out to be 19.7. In addition, the “ΔH (difference in colour tone)” value in “Hair nuance test” (Type A (Non-oxidative)) was determined as 13.9. In the data set “Hair nuance test” (Type B (Oxidative)), the “L*” value is listed as 9, the “a*” value is listed as −0, the “b*” value is given as −1 and the “ΔE (total colour difference to natural hair)” value was found to be 2.0. For the same compound, the “ΔH (difference in colour tone)” value in the data set “Hair nuance test” (Type B (Oxidative)) is 2.0. Further, in “Hair nuance test”, the “eventual colour of bleached hair, Type B” value is recorded as “black colour” and the “eventual colour of bleached hair, Type C” value is “Dark brown”. Moreover, in “Hair nuance test” (setting [3]), the “L*” value is reported as 21, the “a*” value is on record as 18, the “b*” value is 8 and the “ΔE (total colour difference to natural hair)” value is listed as 22.7. In addition, in “Hair nuance test” (setting [3]), the “ΔH (difference in colour tone)” value came out at 19.3.

Turning to `CCC(=O)COc1cc(N)ccc1N` [Compound N11, 1-(2,5-diaminophenoxy)butan-2-one], in the data set on HaCaT cells, the IC50 was 196 µM. The “CV75 (concentration affording 75% cell viability), 1 × CV75” value in the data set with THP-1 cells [1] came to 65.4 µg/mL. The “CD54 and CD86 marker expression” value in the data set on THP-1 cells [2] is given as “did not express the markers at any tested dose level”. Moreover, in the data set “Hair nuance test” (Type A (Non-oxidative)), the “L*” value was 36, the “a*” value amounted to 5, the “b*” value came out at 8 and the “ΔE (total colour difference to natural hair)” value was determined as 28.33. Moreover, in “Hair nuance test” (Type A (Non-oxidative)), the “ΔH (difference in colour tone)” value was determined as 5.32. Besides, in “Hair nuance test”, the “eventual colour of bleached hair, Type A” value is “Greyish brown”; the “eventual colour of bleached hair, Type B” value is “black colour”; the “eventual colour of bleached hair, Type C” value is listed as “Pale Brown”. Besides, in the data set “Hair nuance test” (Type B (Oxidative)), the “L*” value is given as 9, the “a*” value is listed as 0, the “b*” value was −1 and the “ΔE (total colour difference to natural hair)” value was 2. In addition, in the data set “Hair nuance test” (Type B (Oxidative)), the “ΔH (difference in colour tone)” value is reported as 1.41. Moreover, in the data set “Hair nuance test” (setting [3]), the “L*” value is recorded as 32, the “a*” value is 18, the “b*” value worked out at 25 and the “ΔE (total colour difference to natural hair)” value was 37.8. Also, the “ΔH (difference in colour tone)” value in “Hair nuance test” (setting [3]) is reported as 6.14.

With `C=C(C)Oc1cc(N)ccc1N` [Compound N12, 2-(prop-1-en-2-yloxy)benzene-1,4-diamine], the IC50 in the data set with HaCaT cells was 127 µM. In addition, the “CV75 (concentration affording 75% cell viability), 1 × CV75” value in the data set with THP-1 cells [1] was 44.7 µg/mL. In addition, in the data set on THP-1 cells [2], the “CD54 and CD86 marker expression” value was “failed to induce marker expression above the recommended % RFI cut-off”. In addition, in “Hair nuance test” (Type A (Non-oxidative)), the “L*” value stood at 17, the “a*” value is given as 9, the “b*” value is recorded as 4 and the “ΔE (total colour difference to natural hair)” value is 12.4. Besides, in “Hair nuance test” (Type A (Non-oxidative)), the “ΔH (difference in colour tone)” value is given as 3.52. Further, in “Hair nuance test” (Type B (Oxidative)), the “L*” value worked out at 28, the “a*” value is recorded as 18, the “b*” value is 12 and the “ΔE (total colour difference to natural hair)” value was found to be 28.39. For the same compound, the “ΔH (difference in colour tone)” value in the data set “Hair nuance test” (Type B (Oxidative)) worked out at 5.32. In the data set “Hair nuance test”, the “eventual colour of bleached hair, Type B” value was “brown colour” and the “eventual colour of bleached hair, Type C” value is “distinct purple colour”. Also, in “Hair nuance test” (setting [3]), the “L*” value is listed as 11, the “a*” value turned out to be 0, the “b*” value was −3 and the “ΔE (total colour difference to natural hair)” value is on record as 4.47. In addition, in “Hair nuance test” (setting [3]), the “ΔH (difference in colour tone)” value is 2.11.

Turning to `CC(O)COc1cc(N)ccc1N` (centres unmarked) [Compound N10, 1-(2,5-diaminophenoxy)propan-2-ol], in the data set with HaCaT cells, the IC50 was determined as 283 µM. Further, in the data set with THP-1 cells [1], the “CV75 (concentration affording 75% cell viability), 1 × CV75” value was determined as 117 µg/mL. Moreover, in the data set with THP-1 cells [2], the “CD54 and CD86 marker expression” value is listed as “did not express the markers at any tested dose level”. Besides, in the data set “Hair nuance test” (Type A (Non-oxidative)), the “L*” value is listed as 25, the “a*” value stood at 12, the “b*” value is listed as 6 and the “ΔE (total colour difference to natural hair)” value is listed as 20.61. In addition, the “ΔH (difference in colour tone)” value in the data set “Hair nuance test” (Type A (Non-oxidative)) was determined as 4.53. For the same compound, in “Hair nuance test”, the “eventual colour of bleached hair, Type A” value is “Brownish Purple”; the “eventual colour of bleached hair, Type B” value was “black colour”; the “eventual colour of bleached hair, Type C” value was “Brown”. Moreover, in the data set “Hair nuance test” (Type B (Oxidative)), the “L*” value was 11, the “a*” value is 1, the “b*” value is on record as −2 and the “ΔE (total colour difference to natural hair)” value stood at 3.74. The “ΔH (difference in colour tone)” value in “Hair nuance test” (Type B (Oxidative)) is 1.93. Besides, in “Hair nuance test” (setting [3]), the “L*” value is 30, the “a*” value is 18, the “b*” value was determined as 18 and the “ΔE (total colour difference to natural hair)” value stood at 32.46. The “ΔH (difference in colour tone)” value in “Hair nuance test” (setting [3]) was 5.69.

With `CNCCOc1cc(N)ccc1N` [Compound N13, 2-(2-(methylamino)ethoxy)benzene-1,4-diamine], in the data set on HaCaT cells, the IC50 was 120 µM. For the same compound, the “CV75 (concentration affording 75% cell viability), 1 × CV75” value in the data set with THP-1 cells [1] was 54.3 µg/mL. In addition, in “Hair nuance test” (Type A (Non-oxidative)), the “L*” value amounted to 24, the “a*” value worked out at 8, the “b*” value was 8 and the “ΔE (total colour difference to natural hair)” value is 18.38. The “ΔH (difference in colour tone)” value in “Hair nuance test” (Type A (Non-oxidative)) is recorded as 4.28. In addition, in the data set “Hair nuance test” (Type B (Oxidative)), the “L*” value came out at 36, the “a*” value came out at 11, the “b*” value worked out at 18 and the “ΔE (total colour difference to natural hair)” value is listed as 33.74. In the data set “Hair nuance test” (Type B (Oxidative)), the “ΔH (difference in colour tone)” value was found to be 5.8. Further, in “Hair nuance test”, the “eventual colour of bleached hair, Type B” value is “Grey” and the “eventual colour of bleached hair, Type C” value is listed as “Brown”. Moreover, in “Hair nuance test” (setting [3]), the “L*” value is 25, the “a*” value was 14, the “b*” value was determined as 11 and the “ΔE (total colour difference to natural hair)” value was found to be 23.49. Further, the “ΔH (difference in colour tone)” value in “Hair nuance test” (setting [3]) is reported as 4.84.
